We go through 1 substance from publication PMC8942850, “Boron clusters as broadband membrane carriers” (Nature, 2022).

Data set [1] in a line: Carboxyfluorescein (CF) leakage assay, anionic vesicles. Conditions: anionic liposomes DMPE/DPPG/CHOL 1/2/1, 13 µM phospholipids, 10 mM Tris, 140 mM NaCl, pH 7.4; CF fluorescence; Hill analysis; read-out: EC50 membrane-disrupting activity (CF leakage). The procedure: A thin lipid film was prepared by evaporating a lipid solution with a stream of nitrogen and then dried in vacuo overnight. For the zwitterionic vesicles, 25 mg EYPC in 1 ml of CHCl3 was used, and for the anionic vesicles, DMPE/DPPG/CHOL (4.4/10.4/2.6 mg, 1/2/1 molar ratio) in a 1:1 mixture of CHCl3 and MeOH (1 ml) was used. […]
For leakage experiments with the lipid⊃CF vesicles, stock solutions (6 µl) were diluted with the respective buffer in a disposable plastic cuvette and gently stirred (total volume 2,000 µl, final lipid concentration 13 µM). CF fluorescence was monitored at λem = 517 nm (λex = 492 nm) as a function of time after addition of the respective activating or disrupting agent (cluster, WR7 or pyrenebutyrate) at 50 s, and Triton X-100 (24 µl 1.2% (wt/vol)) at 600 s, the latter to lyse the vesicles, for calibration. Fluorescence intensities were normalized to fractional emission intensity as I(t) = (It − I0)/(I∞ − I0), where I0 = It before disrupting agent addition and I∞ = It after Triton X-100 lysis. […]
Extended Data Fig. 1 Assays testing for stability vs leakage of the vesicles. a, Response of the HPTS/DPX assay towards a membrane-disrupting agent and chemical structures of the fluorescent dye HPTS and the quencher DPX. In this assay, large unilamellar vesicles are loaded with the HPTS/DPX probe/quencher pair, such that the fluorescence of HPTS is quenched. […]

A short description of data set [2]: Dynamic light scattering (vesicle size, cargo-carrier aggregates). The data set is classed as physicochemical. The procedure: DLS experiments were carried out on a Malvern Instruments DTS Nano 2000 Zeta-Sizer.
Extended Data Fig. 1 Assays testing for stability vs leakage of the vesicles. a, Response of the HPTS/DPX assay towards a membrane-disrupting agent and chemical structures of the fluorescent dye HPTS and the quencher DPX. In this assay, large unilamellar vesicles are loaded with the HPTS/DPX probe/quencher pair, such that the fluorescence of HPTS is quenched. […] The cluster B12I12^2− (red trace) was identified as lytic agent because the mere addition of the cluster led to a fluorescence increase. […] In this assay, large unilamellar vesicles are loaded with CF at high concentration, such that the fluorescence is quenched. […] The cluster B12I12^2− (red trace) was identified as lytic agent because its mere addition led to a fluorescence increase. […] In b, e and f, Triton X-100 was added at t = 600 s to induce vesicle lysis and allow data normalization. Source data

Turning to B12Br12^2−, the EC50 in data set [1] stood at 960 ± 100 µM. The “DLS of combinations of cluster with the different cargos (aggregates)” value in data set [2] is listed as “did not show any detectable signal of particles”.
